Measurements published in patent US11602534B2, “Pyrimidine derivative kinase inhibitors” (HEFEI INSTITUTES OF PHYSICAL SCIENCE, CHINESE ACADEMY OF …, priority 2017, dated 2023).

Legend:
Tel-cKit-BaF3 = experiment: Proliferation of Tel-cKit-BaF3 cells, CCK8 cell viability assay; type: cell-based, mouse; conditions: Mus musculus; 72 hours, CCK8; stably expressing cKIT kinase
From the text: (§1) In this example the following cells were used: […] (purchased from ATCC), mouse P210-BaF3 (stably expressing BCR-ABL mutant activated kinase), mouse P210/T315I-BaF3 (stably expressing BCR-ABL/T315I mutant activated kinase), mouse FLT3-ITD-BaF3 (stably expressing FLT3/ITD mutant activated kinase), mouse TEL-FLT3-BaF3 (stably expressing FLT3 kinase), mouse TEL-cKIT-BaF3 (stably expressing cKIT kinase), mouse BaF3-tel/T670I-cKit (stably expressing cKIT/T670I mutant activated kinase), mouse Tel-VEGFR2-BaF3 (stably expressing VEGFR2 kinase), mouse Tel-PDGFRα-BaF3 (stably expressing PDGFRα kinase), mouse Tel-PDGFRβ-BaF3 (stably expressing PDGFRβ kinase), mouse Tel-RET-BaF3 (stably expressing RET kinase). The above cell lines were all constructed by our laboratory according to the following method: the kinase region sequences of human P210, P210/T315I, FLT3/ITD, FLT3, cKIT, cKIT/T670I, VEGFR2, PDGFRα, PDGFRβ, RET were respectively amplified by PCR, and inserted into MSCV-Puro vectors having N-terminal TEL or TPR fragments (Clontech). The vectors were stably transfected into mouse BaF3 cells by means of retrovirus, and the growth factor IL-3 were removed, eventually obtaining cell lines that depend on transferred protein P210, P210/T315I, FLT3/ITD, FLT3, cKIT, cKIT/T670I, VEGFR2, PDGFRα, PDGFRβ, or RET.
(§2) GI50 (unit: μM) was calculated by quantifying the number of living cells based on quantitative measurement of reductive dehydrogenase in living cells with CCK8 cell viability assay kit (Bestbio, China).

TEL-PDGFRβ-BaF3 = experiment: Proliferation of TEL-PDGFRβ-BaF3 cells, CCK8 cell viability assay; type: cell-based; conditions: Mus musculus, 72 hours, stably expressing PDGFRβ kinase
From the text: as §1, §2

Tel-FLT3-BaF3 = experiment: Proliferation of Tel-FLT3-BaF3 cells, CCK8 cell viability assay; type: cell-based; conditions: Mus musculus, 72 hours, stably expressing FLT3 kinase
From the text: as §1, §2

Tel-cKit/T670I-BaF3 = experiment: Proliferation of Tel-cKit/T670I-BaF3 cells, CCK8 cell viability assay; type: cell-based; conditions: Mus musculus, 72 hours, stably expressing cKIT/T670I
From the text: as §1, §2

BaF3 = experiment: Proliferation of BaF3 cells, CCK8 cell viability assay; type: cell-based; conditions: Mus musculus, 72 hours
From the text: as §1, §2

P210-BaF3 = experiment: Proliferation of P210-BaF3 cells, CCK8 cell viability assay; type: cell-based; conditions: Mus musculus, 72 hours, stably expressing BCR-ABL mutant activated kinase
From the text: as §1, §2

P210/T315I-BaF3 = experiment: Proliferation of P210/T315I-BaF3 cells, CCK8 cell viability assay; type: cell-based; conditions: Mus musculus, 72 hours, stably expressing BCR-ABL/T315I
From the text: as §1, §2

TEL-VEGFR2-BaF3 = experiment: Proliferation of TEL-VEGFR2-BaF3 cells, CCK8 cell viability assay; type: cell-based; conditions: Mus musculus, 72 hours, stably expressing VEGFR2 kinase
From the text: as §1, §2

TEL-PDGFRα-BaF3 = experiment: Proliferation of TEL-PDGFRα-BaF3 cells, CCK8 cell viability assay; type: cell-based; conditions: Mus musculus, 72 hours, stably expressing PDGFRα kinase
From the text: as §1, §2

FLT3-ITD-BaF3 = experiment: Proliferation of FLT3-ITD-BaF3 cells, CCK8 cell viability assay; type: cell-based; conditions: Mus musculus, 72 hours, stably expressing FLT3/ITD
From the text: as §1, §2

Tel-RET-BaF3 = experiment: Proliferation of Tel-RET-BaF3 cells, CCK8 cell viability assay; type: cell-based; conditions: Mus musculus, 72 hours, stably expressing RET kinase
From the text: as §1, §2

SMILES | GI50 (Tel-cKit-BaF3) | GI50 (TEL-PDGFRβ-BaF3) | GI50 (Tel-FLT3-BaF3) | GI50 (Tel-cKit/T670I-BaF3) | GI50 (BaF3) | GI50 (P210-BaF3) | GI50 (P210/T315I-BaF3) | GI50 (TEL-VEGFR2-BaF3) | GI50 (TEL-PDGFRα-BaF3) | GI50 (FLT3-ITD-BaF3) | GI50 (Tel-RET-BaF3)
CC(C)(C)C(=O)Nc1cc(Oc2ccc(NC(=O)Cc3ccc(C(F)(F)F)cc3)cc2)ncn1 [Example 52, 2,2-dimethyl-N-(6-{4-[2-(4-trifluoromethyl-phenyl)-acetylamino]-phenoxy}-pyrimidin-4-yl)-propanamide] | 2260 nM | 92 nM | 3000 nM | 5680 nM | > 10000 nM | > 10000 nM | > 10000 nM | 3420 nM | 33 nM | 374 nM | 
CC(=O)Nc1cc(Oc2ccc(NC(=O)C(O)c3ccccc3F)cc2)ncn1 (stereo not drawn) [Example 63, N-[4-(6-acetylamino-pyrimidin-4-yloxy)-phenyl]-2-(2-fluoro-phenyl)-2-hydroxy-acetamide] | > 10000 nM | 5750 nM | 4680 nM | > 10000 nM | > 10000 nM | > 10000 nM | > 10000 nM | 3430 nM | 476 nM | 325 nM | 
COc1ccc(CC(=O)Nc2ccc(Oc3cc(NC(C)=O)ncn3)cc2)cc1OC [Example 61, N-[4-(6-acetylamino-pyrimidin-4-yloxy)-phenyl]-2-(3,4-dimethoxy-phenyl)-acetamide] | 4890 nM | 233 nM | 1390 nM | > 10000 nM | 5710 nM | 5610 nM | 9770 nM | 1780 nM | 74 nM | 63 nM | 
CC(=O)Nc1cc(Oc2ccc(NC(=O)Cc3cccc(Cl)c3)cc2)ncn1 [Example 169, N-[4-(6-acetylamino-pyrimidin-4-yloxy)-phenyl]-2-(3-chloro-phenyl)-acetamide] | 1700 nM | 35 nM | 105 nM | > 10000 nM | > 10000 nM | > 10000 nM | > 10000 nM |  | 5 nM | 24 nM | 
CC(=O)Nc1cc(Oc2ccc(NC(=O)Cc3ccc(C(C)(C)C)cc3)cc2)ncn1 [Example 65, N-[4-(6-acetylamino-pyrimidin-4-yloxy)-phenyl]-2-(4-tert-butyl-phenyl)-acetamide] | 376 nM | 84 nM | 612 nM | 1070 nM | > 10000 nM | > 10000 nM | > 10000 nM | 277 nM | 12 nM | 24 nM | 
CC(=O)Nc1cc(Oc2ccc(NC(=O)Cc3ccc4ccccc4c3)cc2)ncn1 [Example 162, N-[4-(6-acetylamino-pyrimidin-4-yloxy)-phenyl]-2-naphth-2-yl-acetamide] | 313 nM | 6 nM | 113 nM | 915 nM | > 10000 nM | > 10000 nM | > 10000 nM |  | 4 nM | 19 nM | 
COc1cc(CC(=O)Nc2ccc(Oc3cc(NC(C)=O)ncn3)cc2)cc(OC)c1OC [Example 62, N-[4-(6-acetylamino-pyrimidin-4-yloxy)-phenyl]-2-(3,4,5-trimethoxy-phenyl)-acetamide] | 810 nM | 231 nM | 390 nM | 6580 nM | > 10000 nM | > 10000 nM | > 10000 nM | 1180 nM | 45 nM | 50 nM | 
CCC(=O)NCCNc1cc(Nc2ccc(CC(=O)Nc3ccc(C)c(C(F)(F)F)c3)cc2)ncn1 [Example 139, N-[2-(6-{4-[(4-methyl-3-trifluoromethyl-phenylcarbamoyl)-methyl]-phenylamino}-pyrimidin-4-ylamino)-ethyl]-propanamide] | > 10000 nM | 34 nM | 1000 nM | 9980 nM | > 10000 nM | > 10000 nM | 9800 nM | 8910 nM | 319 nM | 432 nM | 
C=CC(=O)NCCNc1cc(Nc2ccc(CC(=O)Nc3ccc(C)c(C(F)(F)F)c3)cc2)ncn1 [Example 140, N-[2-(6-{4-[(4-methyl-3-trifluoromethyl-phenylcarbamoyl)-methyl]-phenylamino}-pyrimidin-4-ylamino)-ethyl]-acrylamide] | > 10000 nM | 170 nM | 1110 nM | > 10000 nM | > 10000 nM | > 10000 nM | 9610 nM | 9670 nM | 131 nM | 377 nM | 
CC(=O)Nc1cc(Sc2ccc(NC(=O)Cc3ccccc3C(F)(F)F)cc2)ncn1 [Example 67, N-[4-(6-acetylamino-pyrimidin-4-ylsulfanyl)-phenyl]-2-(2-trifluoromethyl-phenyl)-acetamide] | 6170 nM | 312 nM | 1470 nM | > 10000 nM | > 10000 nM | 8080 nM | 9790 nM | 7820 nM | 14 nM | 291 nM | 

Continued, values first:

GI50 (Tel-cKit-BaF3) | GI50 (TEL-PDGFRβ-BaF3) | GI50 (Tel-FLT3-BaF3) | GI50 (Tel-cKit/T670I-BaF3) | GI50 (BaF3) | GI50 (P210-BaF3) | GI50 (P210/T315I-BaF3) | GI50 (TEL-VEGFR2-BaF3) | GI50 (TEL-PDGFRα-BaF3) | GI50 (FLT3-ITD-BaF3) | GI50 (Tel-RET-BaF3) | SMILES
465 nM | 34 nM | 40 nM | 323 nM | > 10000 nM | > 10000 nM | 9930 nM | 149 nM | 11 nM | 12 nM |  | Cc1ccc(NC(=O)Cc2ccc(Oc3cc(NCCN)ncn3)cc2)cc1C(F)(F)F [Example 137, 2-(4-((6-((2-aminoethyl)amino)pyrimidin-4-yl)oxy)phenyl)-N-(4-methyl-3-(trifluoromethyl)phenyl)acetamide]
3220 nM | 355 nM | 480 nM | 9530 nM | > 10000 nM |  |  | 2890 nM | 70 nM | 190 nM | > 10000 nM | Cc1ccc(NC(=O)Nc2ccc(Oc3cc(NC4CCNCC4)ncn3)cc2)cc1C(F)(F)F [Example 103, 1-(4-methyl-3-trifluoromethyl-phenyl)-3-{4-[6-(piperidin-4-ylamino)-pyrimidin-4-yloxy]-phenyl}-urea]
917 nM | 26 nM | 195 nM | 1880 nM | > 10000 nM | > 10000 nM | > 10000 nM | 433 nM | 11 nM | 14 nM |  | CC(=O)Nc1cc(Oc2ccc(NC(=O)Cc3ccc(C)c(C)c3)cc2)ncn1 [Example 60, N-[4-(6-acetylamino-pyrimidin-4-yloxy)-phenyl]-2-(3,4-dimethyl-phenyl)-acetamide]
736 nM | 8 nM | 162 nM | 1840 nM | > 10000 nM | > 10000 nM | > 10000 nM | 9670 nM | 7 nM | 54 nM |  | Cc1ccc(NC(=O)Nc2ccc(Oc3cc(NCC(N)=O)ncn3)cc2)cc1C(F)(F)F [Example 142, 2-(6-{4-[3-(4-methyl-3-trifluoromethyl-phenyl)-ureido]-phenoxy}-pyrimidin-4-ylamino)-acetamide]
2600 nM | 79 nM | 34 nM | 377 nM | > 10000 nM | > 10000 nM | > 10000 nM | 711 nM | 17 nM | 14 nM |  | Cc1ccc(NC(=O)Cc2ccc(Nc3cc(NCCN)ncn3)cc2)cc1C(F)(F)F [Example 138, 2-{4-[6-(2-amino-ethylamino)-pyrimidin-4-ylamino]-phenyl}-N-(4-methyl-3-trifluoromethyl-phenyl)-acetamide]
